Results taken from patent publication US5310667A (priority 1989, dated 1994).

Tests used:
[1] = target: T1, pMON8186 encoded petunia EPSP synthase variant (glycine (101) to alanine and glycine (144) to aspartic acid) (Petunia hybrida, UniProt P11043, G173A/G216D); test: EPSP synthase kinetic constants (appKi glyphosate, appKm PEP); type: biochemical
T1 construct: GGT codon for glycine (144) in the mature petunia EPSP synthase; made in house; host or cells: E. coli SR481
Protocol: The balance of the #215 preculture (~750 μl) was used to inoculate 2 ml of MOPS medium containing 50 μg/ml carbenicillin and was shaken overnight at 37° C. to reach saturation. Plasmid DNA was isolated from an aliquot of the saturated culture using an alkaline lysis procedure. The plasmid was designated pMON8186. An aliquot of the pMON8186 plasmid was used to transform the E. coli host SR481 (described above) and reselected on MOPS medium containing 10 mM glyphosate and 50 μg/ml carbenicillin. A single glyphosate resistant colony of pMON8186 was picked off the selection plate and used to inoculate 3 ml of 2XYT bacterial medium containing 50 μg/ml carbenicillin. The culture was then aerated on rotating wheel at 37° C. until saturated, then it was used to inoculate a larger 500 ml culture. The large culture was grown to saturation by shaking it overnight at 37° C. in a water bath. The bacterial cells were lysed and the extracts were assayed for EPSPS activity.
Specifically, the bacterial cell paste was washed twice with 0.9% saline, suspended in buffer (100 mM Tris-HCl, 5 mM benzamidine HCl) and passed twice through the French Pressure Cell at 1000 psi. The cell extract was separated from the cells by centrifuging at 15,000 x gravity for 10 mins. at 5° C. It was desalted using Sephadex G-50 (Pharmacia, Piscataway, N.J.). The desalted extract was assayed for EPSP synthase activity as follows:
To an assay mix (40 μl) containing shikimate-3-phosphate (2 mM), ^14 C-phosphoenolpyruvate (1 mM, 1.2 mCi/mmol), ammonium molybdate (0.1 mM), potassium fluoride (5 mM) in 50 mM HEPES-KOH, pH 7, was added the extract and incubated at 25° C. for 2 mins. The reaction was quenched by the addition of 50 μl of 50 μl of 90% ethanol/0.1M acetic acid, pH 4.5. […] The radioactivity of the eluent was monitored using a Radiomatic Flo-One Beta Instrument. […] The EPSP synthase activity was determined by measurement of the conversion of ^14 C-PEP to ^14 C-EPSP synthase, both of which are resolved under the above conditions of chromatography. The protein content of the extract was determined by the method of Bradford (Biorad Labs, Calif.). The specific activity of the extract is expressed as nanomoles of EPSP synthase formed/min/mg protein.
Kinetic constants (appKm PEP and appKi glyphosate) were determined for EPSP synthase as described below. Substrate kinetic parameters were determined at pH 7.0 in 50 mM HEPES (N-[2-hydroxyethyl]piperazine-N'-[2-ethanesulfonic acid]) buffer in the presence of 2 mM S3P and varying amounts of ^14 C-PEP (10 μM-400 μM), for 2.0 minutes at 25° C. Reactions were quenched with 100 mM Na Acetate in ethanol, pH 4.5, centrifuged and analyzed for product EPSP formation by HPLC with flow radioactivity detection. […]

[2] = target: T2, variant petunia EPSP synthase with glycine (101) to alanine and glycine (144) to asparagine substitutions (Petunia hybrida, UniProt P11043, G173A/G216N); test: EPSP synthase kinetic constants (Ki glyphosate, Km PEP); type: biochemical
T2 construct: GGT codon for glycine (144) in the mature petunia EPSP synthase
Protocol: (§1) Kinetic constants (appKm PEP and appKi glyphosate) were determined for EPSP synthase as described below. Substrate kinetic parameters were determined at pH 7.0 in 50 mM HEPES (N-[2-hydroxyethyl]piperazine-N'-[2-ethanesulfonic acid]) buffer in the presence of 2 mM S3P and varying amounts of ^14 C-PEP (10 μM-400 μM), for 2.0 minutes at 25° C. Reactions were quenched with 100 mM Na Acetate in ethanol, pH 4.5, centrifuged and analyzed for product EPSP formation by HPLC with flow radioactivity detection. HPLC conditions were 0.35 MKPi, pH 6.5, on a Synchropak AX100 column at 1.0 ml/min.

[3] = target: T3, petunia EPSP synthase glycine (101) to alanine variant (Petunia hybrida, UniProt P11043, G173A); test: EPSP synthase kinetic constants (appKi glyphosate, appKm PEP); type: biochemical; settings: relative to wild type
T3 construct: made in house; host or cells: E. coli
Protocol: To an assay mix (40 μl) containing shikimate-3-phosphate (2 mM), ^14 C-phosphoenolpyruvate (1 mM, 1.2 mCi/mmol), ammonium molybdate (0.1 mM), potassium fluoride (5 mM) in 50 mM HEPES-KOH, pH 7, was added the extract and incubated at 25° C. for 2 mins. The reaction was quenched by the addition of 50 μl of 50 μl of 90% ethanol/0.1M acetic acid, pH 4.5. 70 μl of the reaction mixture was loaded on a SynchroPak AX100 HPLC column (0.4×25 cm) and the column was eluted with 0.5M potassium phosphate, pH 5.5 at 1 ml/min. The radioactivity of the eluent was monitored using a Radiomatic Flo-One Beta Instrument. (Radiomatics, Fla.). The EPSP synthase activity was determined by measurement of the conversion of ^14 C-PEP to ^14 C-EPSP synthase, both of which are resolved under the above conditions of chromatography. The protein content of the extract was determined by the method of Bradford (Biorad Labs, Calif.). The specific activity of the extract is expressed as nanomoles of EPSP synthase formed/min/mg protein.
as §1

[4] = substrate: C=C(OP(=O)(O)O)C(=O)O; test: purified protein, by the assay type; settings: 25.0 °C

T1 sequence (P11043 73-516 G173A/G216D): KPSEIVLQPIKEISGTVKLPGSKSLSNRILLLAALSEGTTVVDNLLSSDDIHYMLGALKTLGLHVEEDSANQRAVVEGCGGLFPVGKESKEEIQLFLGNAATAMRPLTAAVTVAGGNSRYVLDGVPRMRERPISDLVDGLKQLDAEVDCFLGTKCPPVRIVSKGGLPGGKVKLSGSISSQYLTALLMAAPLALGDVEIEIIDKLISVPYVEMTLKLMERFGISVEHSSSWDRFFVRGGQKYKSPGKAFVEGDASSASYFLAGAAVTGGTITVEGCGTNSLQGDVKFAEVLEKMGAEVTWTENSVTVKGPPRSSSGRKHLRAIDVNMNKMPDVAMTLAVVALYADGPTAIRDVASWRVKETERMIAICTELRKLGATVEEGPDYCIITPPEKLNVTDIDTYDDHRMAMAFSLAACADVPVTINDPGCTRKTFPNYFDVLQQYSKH
T2 sequence (P11043 73-516 G173A/G216N): as the sequence (P11043 73-516 G173A/G216D) above, with D144N counted along it
T3 sequence (P11043 73-516 G173A): as the sequence (P11043 73-516 G173A/G216D) above, with D144G counted along it

C=C(OP(=O)(O)O)C(=O)O [PEP, phosphoenolpyruvate]
Km for PEP [1]: 40 µM | Km for PEP relative to the glycine (101) to alanine variant [1]: more than four fold lower | Km for PEP [2]: 91 µM

O=C(O)C1=C[C@@H](OP(=O)(O)O)[C@@H](O)[C@H](O)C1 [S3P, shikimate-3-phosphate]
binding constant for shikimate-3-phosphate (S3P) [3]: not affected

B1: wild type petunia EPSP synthase (Petunia x hybrida) (protein)
chain: KPSEIVLQPIKEISGTVKLPGSKSLSNRILLLAALSEGTTVVDNLLSSDDIHYMLGALKTLGLHVEEDSANQRAVVEGCGGLFPVGKESKEEIQLFLGNAGTAMRPLTAAVTVAGGNSRYVLDGVPRMRERPISDLVDGLKQLGAEVDCFLGTKCPPVRIVSKGGLPGGKVKLSGSISSQYLTALLMAAPLALGDVEIEIIDKLISVPYVEMTLKLMERFGISVEHSSSWDRFFVRGGQKYKSPGKAFVEGDASSASYFLAGAAVTGGTITVEGCGTNSLQGDVKFAEVLEKMGAEVTWTENSVTVKGPPRSSSGRKHLRAIDVNMNKMPDVAMTLAVVALYADGPTAIRDVASWRVKETERMIAICTELRKLGATVEEGPDYCIITPPEKLNVTDIDTYDDHRMAMAFSLAACADVPVTINDPGCTRKTFPNYFDVLQQYSKH
Km [4]: 5.2 µM
